This passage reports TGI and GI50 results from PubChem BioAssay (NCI).

Common to all, as to assay: NCI anticancer screen, dose series, 48 h
Assay [1] deals with OVCAR-5 ovarian.
Assay [2] concerns DU-145 prostate.
Assay [3] relates to HT29 colon.
Assay [4] has as its system UACC-257 melanoma.
Assay [5] deals with IGROV1 ovarian.
The subject of assay [6] is U251 CNS.
Assay [7] relates to CCRF-CEM leukemia.
The test system of assay [8] is UACC-62 melanoma.
The subject of assay [9] is MALME-3M melanoma.
For assay [10], the system named is HOP-62 NSCLC.

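Briefly, cells in 96-well plates were exposed to five compound concentrations for 48 h, and endpoints were estimated by linear interpolation. GI50 is the concentration that inhibits growth by half. TGI is the concentration that stops growth completely.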

As for `CC(C(N)=O)N(C)C(=O)c1cnc2ccccc2c1` (configuration not stated), the TGI in assay [1], in [2], in assay [3], in assay [4], in [5] and in assay [6] was over 100 µM throughout. Besides, the TGI in assay [7], in [8] and in [9] was over 100 µM throughout.
On to `O=C(/C=C/c1ccccc1)CCC1C(=O)NC(=S)NC1=O`, for which the TGI in [1], in assay [2], in [4], in assay [6] and in [8] was over 100 µM each time.
Consider `NS(=O)(=O)c1ccc(NC(=O)c2cccc(NC3=C(Cl)C(=O)N(Cc4ccccc4)C3=O)c2)cc1`, for which the GI50 in assay [2] was 11.1 µM; in [3], 33.3 µM; in assay [4], 14.7 µM; in assay [5], 4.78 µM; in assay [6], 5.18 µM; in [7], 2.82 µM. The GI50 in assay [8] was 9.05 µM; in assay [10] it was 31.5 µM. Moreover, the TGI in assay [2] is 25.1 µM; in assay [3] it was over 100 µM; in [4], 29.4 µM; in [5], 19.2 µM; in [6], 19.6 µM; in assay [7], 8.17 µM. For the same molecule, the TGI was 22.9 µM in assay [8] and over 100 µM in assay [10].
As to `CCCCCCCCCCSC(=N)N`, the GI50 is 9.84 µM in assay [1]; 6.63 µM in assay [2]; 1.42 µM in assay [3]; 2.51 µM in assay [4]; 2.85 µM in assay [5]; 2.37 µM in [6]. For the same molecule, the GI50 was 1.98 µM in assay [8], 3.36 µM in [10] and 2.32 µM in assay [9]. Moreover, the TGI in assay [1] turned out to be 23.5 µM; in assay [2], 19.3 µM; in [3] it was 2.84 µM; in assay [4] it was 6.32 µM; in assay [5] it was 13.3 µM; in assay [6], 6.72 µM. Besides, the values for the TGI in assay [8], in assay [10] and in [9] were 4.45 µM, 10.3 µM and 6.59 µM, respectively.
For the molecule `COc1cc(Cn2c(-c3ccccc3)cc3c2-c2oncc2CC3)cc(OC)c1`, the GI50 was 0.551 µM in assay [1]; 0.309 µM in [2]; 0.315 µM in assay [3]; 0.399 µM in assay [5]; 0.427 µM in [6]; 0.337 µM in assay [7]. The GI50 was 0.314 µM in assay [8] and 0.521 µM in assay [10]. Also, the TGI was over 100 µM in assay [1]; 1.25 µM in assay [2]; 25.9 µM in assay [3]; over 100 µM in assay [4]; over 100 µM in [5]; over 100 µM in assay [6]. The TGI in assay [7], in assay [8] and in [10] was over 100 µM in each case.
For the molecule H-QIYKKYRTWYRKAWKVLGKV-NH2, the GI50 in [1] is 8.79 µM; in assay [2], 3.54 µM; in assay [3], 20.8 µM; in assay [4], 13.8 µM; in assay [5], 3.06 µM; in [6], 12 µM. Further, the GI50 in assay [7] was 4.14 µM; in [8], 2.08 µM; in assay [10] it was 5.15 µM. The TGI in assay [1] was 22.5 µM; in assay [2], 11.8 µM; in assay [3] it was over 100 µM; in assay [4] it was 51.6 µM; in [5] it was 14.1 µM; in [6], over 100 µM. Besides, the figures for the TGI in [7], in assay [8] and in assay [10] were over 100 µM, 4.74 µM and over 100 µM, respectively.
In the case of `CCOC(=O)c1c(C)n(Cc2ccccc2)c2c1cc1oc(=O)c(=O)n3cnc2c13`, the GI50 is 36.9 µM in assay [1]; 11.8 µM in [2]; 18.3 µM in [3]; 17 µM in [4]; 28.1 µM in [5]; 12 µM in [6]. For the same molecule, the GI50 in [8] is 16.6 µM; in [10] it was 29.4 µM. For the same molecule, the TGI was over 50 µM in [1]; over 50 µM in assay [2]; over 50 µM in [3]; 48.3 µM in assay [4]; over 50 µM in assay [5]; over 50 µM in assay [6]. For the same molecule, the TGI in assay [8] and in assay [10] was over 50 µM in each case.
Consider `Nc1ccn(C2OC(C(OC3OC(CO)C(O)C(N)C3O)C(O)C(O)C(O)C(O)CO)C(N)C(O)C2O)c(=O)n1` (configuration not stated), for which the TGI in assay [1], in assay [2], in assay [3], in [4], in assay [5] and in assay [6] was over 100 µM in each case. Further, the TGI in assay [7], in assay [8] and in assay [10] was over 100 µM throughout.
With `CC(N1CCOCC1)C(O)(c1ccccc1)c1ccccn1` (configuration not stated), the TGI in assay [1], in [2], in assay [3], in [4], in [5] and in [6] was over 100 µM in each case. Moreover, the TGI in assay [8], in assay [10] and in assay [9] was over 100 µM in each case.
